Test results as given in paper PMC12344774, “Ferrocenyl Quinoline-Benzimidazole Hybrids: A Multistage Strategy to Combat Drug-Resistant Malaria” (Inorganic Chemistry, 2025).
Values joined by “and” are separate entries in the source; they are usually repeats but may differ in a detail not shown here. Identical values can stand only once. Like-named read-outs stand apart in the source and are kept apart here.

How the values were obtained:
PfNF54 = assay: In vitro ABS antiplasmodial activity, pLDH assay, drug-sensitive NF54; format: cell-based, Plasmodium falciparum; conditions: drug-sensitive NF54, ABS, pLDH, 48 h incubation; read-out: PfNF54 IC50 ± SEM
Text: (§1) This side chain is also present in the well-known antiplasmodial agent, FQ.
(§2) Test samples were screened in technical duplicate or triplicate, for three or four biological replicates, for their in vitro blood stage antiplasmodial activity against both the drug-sensitive (NF54) and multidrug-resistant (K1) strains of . Continuous in vitro cultures of asexual erythrocyte stages of were maintained using a modified method of Trager and Jensen. A quantitative assessment of the in vitro antiplasmodial activity was determined via the parasite lactate dehydrogenase (pLDH) assay, using a modified method described by Makler and Hinrichs.
(§3) The test samples were prepared to a 20 mg/mL stock solution in 100% DMSO. Stock solutions were stored at −20 °C. Further dilutions were prepared in complete medium on the day of the experiment. […] Chloroquine diphosphate (CQDP) was used as the reference drug in all experiments. Test samples were tested at a starting concentration of either 100 μg/mL, 50 μg/mL, 10 μg/mL, or 1 μg/mL, which was then serially diluted 2-fold, in complete medium, to give 10 concentrations. The same dilution technique was used for all samples. […] The IC50 values were obtained from full dose–response curves, using a nonlinear dose–response curve fitting analysis, via GraphPad Prism v.5 software.

PfK1 = assay: microbe, parasite or virus in culture; format: cell-based, Plasmodium falciparum; conditions: MDR K1, ABS, pLDH, 48 h incubation; read-out: PfK1 IC50 ± SEM
Text: as §1, §2, §3

CHO cell line [1] = system: CHO cell line
Protocol: (§4) The samples were tested over 48 h against the Chinese hamster ovarian (CHO) cell line to determine general cytotoxicity. […] Quantitative assessment of toxic activity in vitro was determined via the MTT assay using the method described. Cell viability was determined colorimetrically using the breakdown of a dye by enzymes of the electron transport chain, taking place in the mitochondria of metabolically active living cells, as a marker for survival.
(§5) Compounds were tested in triplicate on a single occasion against these cells using the MTT assay. The test samples were prepared to a 10 mM stock solution, in 100% DMSO, and stored at −20 °C until use. Samples were tested as a suspension if not completely dissolved. Further dilutions to the desired starting concentration were freshly prepared in growth media at the start of the experiment.
(§6) Cells were plated to a density of 10^5 cells/well in 96-well plates and allowed to attach for 24 h. […] After 44 h MTT was added, and the plates were read 4 h later at 540 nm on a spectrophotometer following the addition of 100 μL of DMSO and gentle plate-shaking to solubilize and visualize the dye. Survival was plotted against concentration, and the IC50 values were obtained using a nonlinear dose–response curve fitting analysis via the Dotmatics software platform.

K1 = conditions: previous study; ref Baartzes et al.; read-out: PfIC50 (K1); cited from earlier work
rodent mouse model = system: rodent mouse model; design: method as in Baartzes et al.; conditions: in vivo, no mice were cured; ref Baartzes et al.; cited from earlier work
[2] = system: whole-cell NF54 parasites
Protocol: However, unlike the cell-free assay, the heme fractionation assay isolates both the heme and Hz components via a series of solubilization and separation steps. Furthermore, the absolute amount of each heme species per cell is calculated using the UV–vis data normalized to the flow cytometry parasite cell count.
The IC50 was previously determined using the pLDH assay. Following incubation for 28–32 h, to ensure progression to the trophozoite stage, parasitized red blood cells were saponin lysed to obtain isolated trophozoites. To determine the amount of heme and hemozoin, the trophozoites were then exposed to a series of cellular fractionation steps to successively liberate each heme species. The UV–visible spectra of these fractions were recorded between 400 and 415 nm on a multiwell plate reader. The percentage of each heme species was determined from the absorbance value of the Soret band of the pyridyl heme complex. To determine the absolute levels of each species, an aliquot of the isolated trophozoites was spiked with Trucount beads and stained with SYBR Green. These were run on a flow cytometer to determine absolute counts, which could in turn be used to calculate the absolute levels of each species per cell. The total heme in each of these samples was quantified using a standard curve. GraphPad Prism (v5) was used to analyze the final data set and perform the significance tests.

CHO cell line [3] = assay: Cytotoxicity, MTT assay
Protocol: as §4, §5, §6

Row | SMILES | IC50 (PfNF54) [µM] | IC50 (PfK1) | CC50 (CHO cell line [1]) [µM] | IC50 (K1) [nM] | Reduction in parasitemia (rodent mouse model) [%] | Hemozoin (Hz) Fe level per cell versus untreated control ([2]; NF54 parasites at 3× IC50) | Free heme level per cell ([2]; NF54 parasites, 0.5–1.5× the IC50 value) | CC50 (CHO cell line [3]; read-out: CC50 (CHO) ± SEM, MTT, 48 h, technical triplicate on a single occasion) [µM] | SI (CC50 CHO/IC50 NF54) (CHO cell line [3]; selectivity index)
1 | Cc1ccc2c(c1)nc(-[c-]1cccc1)n2CCCNc1ccnc2cc(Cl)ccc12.[Fe+2].c1cc[cH-]c1 [Complex C1, 7-chloro-N-(3-(5-(methyl)-2-ferrocenyl-1H-benzo[d]imidazole-1-yl)propyl)quinolin-4-amine] | 9.91 ± 0.71 | 6290 ± 510 nM | 43.7 ± 2.5 | 283 | 92 |  |  |  | 
2 | Cc1ccc2c(c1)nc(-[c-]1cccc1CN(C)C)n2CCCNc1ccnc2cc(Cl)ccc12.[Fe+2].c1cc[cH-]c1 (centres unmarked) [Complex C3, 7-Chloro-N-(3-(5-methyl-2-(2-N,N-dimethylaminomethyl)ferrocenyl-1H-benzo[d]-imidazole-1-yl)propyl) Quinoline-4-amine] | 0.025 ± 0.001 | 110 nM and 113 nM |  |  |  | more than five times lower | steadily increased | 6.1 ± 1.2 | 244.4
